{"source": "patent EP0819136B1", "about": "“MDP DERIVATIVES AND CONJUGATES HAVING HAEMATOPOIETIC FUNCTION STIMULATING ACTIVITY, AND COMPOSITIONS CONTAINING SAME” (VACSYN S.A., priority 1995, dated 1996)", "key": {"[1]": {"system": "leucocytes et de neutrophiles circulants", "experiment": "Leucocyte, neutrophil and myelocyte counts after oral Muradimétide with non-myelotoxic or myelotoxic i.v. AZT (Example 8, figures 1-3)", "type": "in vivo, souris Swiss femelles", "settings": "Muradimétide 25 mg/kg p.o. 4 h before AZT 5 or 40 mg/kg i.v., days 0-3; time after start of treatment", "method": "La figure 1 montre l'effet d'un traitement per os des souris avec du Muradimétide en association avec des doses d'AZT non myélotoxiques (5 mg par kg) (Fig 1A) ou myélotoxiques (40mg par kg) (Fig 1B) sur le changement des leucocytes circulants.\nLa figure 2 représente le même type de courbe sur la numération des neutrophiles; la figure 2A représente une expérience réalisée avec une dose non myélotoxique d'AZT (5 mg par kg) et la figure 2B avec une dose myélotoxique d'AZT (40 mg par kg).\nLa figure 3 représente le même type de courbe sur la numération des myélocytes. La figure 3A se rapporte à une dose non myélotoxique d'AZT (5mg/kg) et la figure 3B à une dose myélotoxique (40 mg/kg).\nCet effet est indiqué sur les figures 1 et 2, les figures 1A et 2A représentant une dose non myélotoxique d'AZT et les figures 1B et 2B représentant une dose myélotoxique d'AZT.\nDans cette expérience, des souris Swiss femelles ont été injectées par voie intra-veineuse avec de l'AZT à la dose de 5 ou de 40 mg par kg aux jours 0, 1, 2 et 3. Sur chacun des 4 jours et 4 heures avant l'administration d'AZT, des groupes de souris constitués de 5 individus ont reçu per os soit du tampon soit du Muradimétide à la dose de 25 mg par kg.\nLes comptages cellulaires sont effectués aux jours 0, 1, 2, 3, 4 et 7. […]"}, "CSH [2]": {"system": "CSH", "experiment": "CSH mobilisation in cyclophosphamide-treated mice after oral AZT, MDM or both (Example 6, figure 13)", "type": "in vivo, souris", "settings": "cyclophosphamide 200 mg/kg s.c. day 0; oral MDM 25 mg/kg alone days 0, 1, 2, 3", "method": "La figure 13 représente une expérience similaire sur des souris normales qui ont préalablement reçu un traitement par une drogue cytotoxique : la cyclophosphamide.\nL'effet du traitement ci-dessus pour compenser l'effet cytotoxique des chimiothérapies a été étudié en traitant les souris par le cyclophosphamide.\nLes souris traitées par une simple injection sous-cutanée de cyclophosphamide (dose de 200 mg/kg) au jour 0 ont été ensuite divisées entre 4 groupes et ont reçu oralement, outre de l'eau physiologique (X), de l'AZT à 50 mg/kg (□), du MDM à 25 mg/kg (Δ) ou du mélange de ceux-ci (O). Le traitement oral a été effectué aux jours 0, 1, 2 et 3 et les numérations cellulaires ont été évaluées jusqu'à 14 jours après le commencement du traitement. Les résultats sont indiqués dans la figure 13. Là-encore, il apparaît évident qu'une très forte mobilisation a lieu surtout en présence du mélange d'AZT et de MDM."}, "CSH [3]": {"system": "CSH", "experiment": "Circulating CSH at different stages of differentiation, colony cultures of blood mononuclear cells from treated mice (Example 7, figures 14a-d)", "type": "in vivo, souris (10 Balb/c par groupe)", "settings": "once daily for three consecutive days, MDM 25 mg/kg with or without AZT 50 mg/kg; blood collected 24 h after the last administration", "description": "Ces expériences ont pour objet la mise en évidence des différentes populations de CSH présentes dans le sang circulant.\nOnt été recherchés les stades suivants depuis les plus primitifs décelables en culture et qui ne présentent aucun signe de différenciation comme les CFAC (Coblestone Area Forming Cells) et LTC-IC (Long Term Culture - Initiating Cells) jusqu'au GM-CFU (Granulocyte Macrophage - Colony Forming Units) en passant par des stades intermédiaires comme les HPP et LPP-CFU (respectivement High Proliferating Potential and Low Proliferating Potential CFU). Dans tous les cas, les conditions de cultures, en particulier leur durée, ont été choisies pour permettre une détection optimale des différentes populations considérées.\nOnt été comparés pour cette étude l'effet de l'injection de saline (X-), d'AZT à 50 mg/kg, du MDM à 25 mg/kg et le mélange des deux sur le nombre de CSH cirulants. Les cellules mononucléaires après purification ont été cultivées pendant 5 jours pour dénombrer les GM-UFC (pour granulocytes - macrophages unités formant colonies), pendant 28 jours pour dénombrer les unités formant colonies à bas potentiel prolifératif (LPP) et les UFC à haut potentiel prolifératif (HPP). Les CAFC ont été dénombrés après 14 jours de culture. Les LTC-IC après 28 jours. Les résultats sont présentés sur les figures 14a, 14b, 14c et 14d respectivement. […]"}}, "data": [{"compound": "COC(=O)CC[C@@H](NC(=O)[C@H](C)NC(=O)[C@@H](C)O[C@H]1[C@H](O)[C@@H](CO)OC(O)[C@@H]1NC(C)=O)C(=O)OC", "note": "(stereo partly drawn) [Muradimétide, Nac-Mur-L-Ala-D-Glu-[OCH3]-OCH3]", "values": [{"measurement": "temps de l'effet maximum (leucocytes, neutrophiles, myélocytes)", "setting": "[1]", "value": 4, "unit": "jours"}, {"measurement": "numération des neutrophiles circulants", "setting": "CSH [2]", "value": "effet similaire mais nettement moins marqué"}, {"measurement": "nombre de CSH circulants (GM-CFU, LPP-CFU, HPP-CFU)", "setting": "CSH [3]", "value": "apparaît clairement"}]}]}
